We go through two molecules from patent US20100233096A1, “METHOD TO PRODUCE HYPERPOLARISED CARBOXYLATES AND SULPHONATES” (priority 2006, published 2010).

The conditions of data set [1]: compared with NH4-acetate or Ca-acetate; solubility data available in the literature; cited from earlier work.
The nature of data set [2]: T1 relaxation in human full blood. In kind it is physicochemical. The conditions noted are these: human full blood at 37° C. The source says: The amount of alanine, bicarbonate and lactate is dependent on the metabolic status of the tissue under investigation.

Consider `CC(=O)[O-].[Cs+]` [Cs-acetate], for which the solubility in water result in data set [1] is recorded as “higher solubility in water”.

As for `CC(=O)[13C](=O)O` [^13C-pyruvate], the T1 relaxation entry in data set [2] is “about 42 s”.
